The values below come from paper doi:10.1101/2022.02.09.479090v1 (biorxiv, 2022).

The target of data set [1] is AncFT. Description: anaerobic fluorescence titration. Set-up: species or system synthetic construct. The note with it: 100 mM potassium phosphate pH 7.5, 30 °C.
Data set [2] concerns the target T1, RLuc8 (Renilla reniformis, UniProt P27652, A143M/A55T/C124A/K136R/M185V/M253L/S130A/S287L). Kind of data set: biochemical.
The target of data set [3] is T1, RLuc8. Kind of data set: biochemical. This is another data set of the same source.
The target of data set [4] is AncFT. Description: anaerobic fluorescence titration. Set-up: species or system synthetic construct. The note with it: 100 mM potassium phosphate pH 7.5, 30 °C. This is another data set of the same source.
For data set [5], the system named is AncFT. Description: luminescence progress curves, global numerical fit. The data set is classed as biochemical, synthetic construct. Particulars: O2 co-substrate; 100 mM phosphate pH 7.5, 37 °C.
In data set [6] the target is AncFT. Description: luminescence progress curves, global numerical fit. The data set is classed as biochemical, synthetic construct. The note with it: competitive versus coelenterazine; 100 mM phosphate pH 7.5, 37 °C.
Data set [7] deals with T1, RLuc8. Kind of data set: biochemical. The source holds these as a separate data set.
Substrate in the data set “purified protein”: Oc1ccc(Cc2nc3c(Cc4ccccc4)nc(-c4ccc(O)cc4)cn3c2O)cc1
Description: purified protein. Particulars: O2 co-substrate, 100 mM phosphate pH 7.5, 37 °C.

Where two headings read alike, the source gives them in different places.

As for `O=C(Cc1ccc(O)cc1)Nc1ncc(-c2ccc(O)cc2)nc1Cc1ccccc1` [CEI, coelenteramide], the Kd is 16 ± 2 µM on AncFT [1] and 22 ± 2 µM on RLuc8 [2].
Regarding `Oc1ccc(Cc2nc3c(Cc4ccccc4)nc(-c4ccc(O)cc4)cn3c2O)cc1` [CTZ, 2-(p-hydroxybenzyl)-6-(p-hydroxyphenyl)-8-benzylimidazo [1,2-a]pyrazine-3-(7H)-one], the Kd on RLuc8 [3] was found to be 37 ± 15 µM; on AncFT [4], 12 ± 5 µM. Moreover, the Km in the data set on AncFT [5] was 0.042 µM.
Regarding `O=c1n(Cc2ccc(O)cc2)nc2c(Cc3ccccc3)nc(-c3ccc(O)cc3)cn12` [azaCTZ, 8-Benzyl-2-(4-hydroxybenzyl)-6-(4-hydroxyphenyl)-[1,2,4]triazolo[4,3-a]pyrazin-3(2H)-one], the figures for the Ki on AncFT [6] and at RLuc8 [7] were 0.092 ± 0.002 µM and 16.1 µM, respectively.

B1: RLuc8 (Renilla reniformis; A143M/A55T/C124A/K136R/M185V/M253L/S130A/S287L) (protein)
chain: MTSKVYDPEQRKRMITGPQWWARCKQMNVLDSFINYYDSEKHAENAVIFLHGNATSSYLWRHVVPHIEPVARCIIPDLIGMGKSGKSGNGSYRLLDHYKYLTAWFELLNLPKKIIFVGHDWGAALAFHYAYEHQDRIKAIVHMESVVDVIESWDEWPDIEEDIALIKSEEGEKMVLENNFFVETVLPSKIMRKLEPEEFAAYLEPFKEKGEVRRPTLSWPREIPLVKGGKPDVVQIVRNYNAYLRASDDLPKLFIESDPGFFSNAIVEGAKKFPNTEFVKVKGLHFLQEDAPDEMGKYIKSFVERVLKNEQ
On to B1, for which the Km in “purified protein” was determined as 1.66 µM.
